Converted amounts (≈) assume the structure as drawn. “And” between values parts separate entries of the source, which are not always exact repeats. Equal entries are not always repeated. Blank lines part the entries; values can stand above or below the compound they belong to.
Legend:
[1] = tested on: Acanthocheilonema viteae; assay: Antifilarial dual infection screen in jirds: adult A. viteae burden and microfilaremia; assay type: in vivo, in Mongolian jirds; conditions: for % Macrofilarial reduction, A. viteae: day 56
Excerpt: (§1) Dual infections of the filarial worms Brugia pahangi and Acanthocheilonema viteae in jirds are used routinely for antifilarial screening [McCall, J. W., McTier, T. L., and Rowan, S. J., "In vivo models for evaluating potential antifilarial agents", Onchocerciasis/Filariasis (Proceedings of a Symposium sponsored by the World Health Organization), Kalamazoo, Mich., Apr. 8-10, 23-24 (1986)].
(§2) For this dual infection screen, male Mongolian jirds weighing 50-60 g are infected SC with 10 (5 male and 5 female) adult A. viteae, transplanted under sodium pentobarbital anesthesia (48 mg/kg) from donor hamsters infected SC 8 weeks earlier. Two weeks later, 20 (10 male and 10 female) adult B. pahangi, taken from donor jirds infected IP 8 weeks earlier, are transplanted into the peritoneal cavity of each jird under sodium pentobarbital anesthesia. After an additional week, when the jirds have acceptable levels of microfilaremia, they are randomly allocated to treatment groups of 3 animals each and a nontreated group of 4-6 animals. Microfilaremia is determined on days 0 (just prior to the first dose), 4 and 56 post-treatment. Unless indicated otherwise, compounds are suspended in hydroxyethylcellulose (0.5%) - Tween 80 (0.1%) and administered SC at 100 mg/kg/day for 5 consecutive days. All jirds are killed on day 56 post-treatment to determine the effects of drugs on adults of A. viteae and B. pahangi. Live worms are identified as to species, noted as to sex, and counted. The number of dead and/or encapsulated worms is also recorded. A reduction of ≥80% in microfilaremia or ≥50% in adult worm burden (either species) compared with pre-treatment microfilaremia or non-treated control worm burden, respectively, is considered to be significant. For secondary testing with this dual infection screen, groups of 7 animals each are used. For oral dosing, drugs are dissolved or suspended in hydroxyethylcellulose - Tween 80 and administered by gavage.

[2] = tested on: Brugia pahangi; assay: Antifilarial dual infection screen in jirds: adult B. pahangi burden; assay type: in vivo, in Mongolian jirds; conditions: day 56
Excerpt: as §1, §2

[3] = Aqueous solubility; conditions: water
[4] = tested on: Brugia pahangi; assay: Antifilarial effect in beagle dogs infected with Brugia pahangi; assay type: in vivo
Excerpt: The infective larvae of B. pahangi were produced and collected as described by McCall [J. Georgia Entomol. Soc. 16:283-293, (1981)]. The dogs were given 100 L3 of B. pahangi by subcutaneous injection (SC) into the dorsum of each hind paw or 200 L3 in one hind paw (i.e., a total inoculum of 200 L3 per dog).
The dogs were randomly allocated to treatment groups containing 4 dogs. The dogs were divided by sex and ranked by declining baseline microfilarial counts (average count based on the 5 bleedings made before the day of treatment). Those dogs which were amicrofilaremic or had very few microfilariae were excluded from the trial. Of the remaining dogs, those with the highest baseline microfilaremias were assigned to seven-dog replicates. The sex of the dogs within three of the replicates was the same, while the fourth replicate contained dogs of both sexes. The dogs of a given sex with the highest levels of microfilaremia were placed in the same replicate. The next set of dogs of that sex with the next highest levels of microfilaremia was assigned to the next replicate, and so on until all of the replicates were filled. The dogs within each complete replicate were assigned to test groups using a table of random numbers [Ostle and Mensing, Statistics in Research, Third Edition, Iowa State University Press, Ames, Iowa, pp. 560-563, (1975)]. The test groups were likewise assigned to either control or treatment groups using the table of random numbers.
The first day of treatment, day 0, was approximately 144 days after infection. Drugs were administered orally as a 10% suspension in HEC-Tween 80 or in soft gelatin capsules. Drugs were administered intramuscularly or subcutaneously as a 10% suspension in peanut oil or in HEC-Tween 80. Groups of four dogs served in sham-treated controls in each experiment. All of the treatments were given by IM injection in the dorsal lumbar muscles.
(§3) All dogs were observed frequently during each day of treatment and daily throughout the remainder of the study for any signs of reactions. In addition, the hair was shaved at the injection sites to facilitate the observation of possible tissue irritation resulting from treatment.
Blood was collected from each dog on days 51, 43, 27, 19, and 5 before treatment to determine baseline microfilaremias and allocate the dogs to treatment groups. Blood was then collected from all dogs on the day before treatment on day -1, on days 7, 10, 14, 21, 28, 35, 42, 49, and 56 days after treatment. All bleedings were done at approximately the same time of day (11:00-12:00 E.S.T.). Two 20-μl blood films were prepared from each sample and stained with giemsa. Microfilarial counts were made from the 2 blood films.
The dogs were euthanized for necropsy either two or six months after the first day of treatment. Just prior to euthanasia, the dogs were given a subcutaneous injection (SC) of a two percent solution of Evans blue into the dorsum of both hind paws in order to help delineate the lymphatic vessels. This was followed at least 30 minutes later with a lethal dose of Fatal-Plus® (Vortech Pharmaceuticals, Dearborn, Mich.). A limited necropsy was performed on each dog with examination of the afferent and efferent lymphatics of both hindlimbs and the popliteal, inguinal, internal and external iliac, and lumbar lymph nodes. Any live or dead worms seen were removed. These vessels and lymph nodes were removed, teased, and soaked overnight in normal saline to allow any worms to migrate out of the tissues. The condition of the worms, their sex and number, and the location from which they were recovered were noted.
Effectiveness against the adult parasites was determined as follows: [formula] Effectiveness against microfilariae for a given day after treatment was determined as follows: [formula]
The adult B. pahangi counts and the microfilarial counts were compared using a one way analysis of variance (ANOVA). […]

[5] = tested on: B. pahangi and A. viteae; assay: Antifilarial activity in jirds, dual infection, summary in words; assay type: in vivo; conditions: both oral and parenteral routes
Excerpt: as §1
For this dual infection screen, male Mongolian jirds weighing 50-60 g are infected SC with 10 (5 male and 5 female) adult A. viteae, transplanted under sodium pentobarbital anesthesia (48 mg/kg) from donor hamsters infected SC 8 weeks earlier. Two weeks later, 20 (10 male and 10 female) adult B. pahangi, taken from donor jirds infected IP 8 weeks earlier, are transplanted into the peritoneal cavity of each jird under sodium pentobarbital anesthesia. After an additional week, when the jirds have acceptable levels of microfilaremia, they are randomly allocated to treatment groups of 3 animals each and a nontreated group of 4-6 animals. Microfilaremia is determined on days 0 (just prior to the first dose), 4 and 56 post-treatment. […] Live worms are identified as to species, noted as to sex, and counted. The number of dead and/or encapsulated worms is also recorded. […]

[6] = Local muscle irritation at injection site in beagle dogs; assay type: in vivo; conditions: IM, 12.5-50 mg/kg/day for 2 to 3 days
Excerpt: as §3

[7] = tested on: adult worms; conditions: background art; cited from earlier work
[8] = tested on: microfilariae; conditions: background art; cited from earlier work
[9] = background art; cited from earlier work
[10] = background art; cited from earlier work; remark: listed apart in the source
[11] = IM, 6.25 mg/kg/day × 3, peanut oil
[12] = IM, 12.5 mg/kg/day × 3, peanut oil
[13] = IM, 25 mg/kg/day × 3, peanut oil
[14] = IM, 50 mg/kg/day × 1, peanut oil
[15] = IM, 50 mg/kg/day × 2, peanut oil
[16] = IM, 50 mg/kg/day × 3, peanut oil
[17] = PO, 200 mg/kg/day bid × 3, HEC-Tween 80
[18] = SC, 50 mg/kg/day × 3, HEC-Tween 80

solubility [3]: 180 µg/mL (≈ 573 µM)
Compound: COC(=O)Nc1nc2cc(C(N)c3ccc(F)cc3)ccc2[nH]1 (racemic) [Example 1, Methyl (±)-[5-[Amino(4-Fluorophenyl)Methyl]-1H-Benzimidazol-2-yl]Carbamate]
% Microfilarial reduction, A. viteae, Day 4 ([1]; 25 mg/kg/day × 5 days, SC): 0% | % Macrofilarial reduction, A. viteae ([1]; 25 mg/kg/day × 5 days, SC): 88% | % Macrofilarial reduction, B. pahangi ([2]; 1.56 mg/kg/day × 5 days, SC): 16% | % Macrofilarial reduction, B. pahangi ([2]; 6.25 mg/kg/day × 5 days, SC): 92% | % Macrofilarial reduction, B. pahangi ([2]; 12.5 mg/kg/day × 5 days, SC): 100% | % Macrofilarial reduction, B. pahangi ([2]; 25 mg/kg/day × 5 days, SC): 100% | Dogs cured/Treated [4, 11]: 0/4 | Percent reduction Macrofilariae [4, 11]: 38% | Percent reduction Microfilariae [4, 11]: 50% | Dogs cured/Treated [4, 12]: 1/4 | Percent reduction Macrofilariae [4, 12]: 91% | Percent reduction Microfilariae [4, 12]: 76% | Dogs cured/Treated [4, 13]: 4/4 | Percent reduction Macrofilariae [4, 13]: 100% | Percent reduction Microfilariae [4, 13]: 72% | Dogs cured/Treated [4, 14]: 0/4 | Percent reduction Macrofilariae [4, 14]: 85% | Percent reduction Microfilariae [4, 14]: 55% | Dogs cured/Treated [4, 15]: 2/4 | Percent reduction Macrofilariae [4, 15]: 92% | Percent reduction Microfilariae [4, 15]: 59% | Dogs cured/Treated [4, 16]: 4/4 | Percent reduction Macrofilariae [4, 16]: 100% | Percent reduction Microfilariae ([4]; IM, 50 mg/kg/day × 3, peanut oil, 50 mg/kg/day): 100% and 99% | cure of B. pahangi infections ([4]; IM, 12.5-50 mg/kg/day for 2 to 3 days): cured dogs of B. pahangi infections | Percent reduction Macrofilariae [4, 17]: 93% | Percent reduction Microfilariae [4, 17]: 97% | Dogs cured/Treated ([4]; PO, 200 mg/kg/day bid × 3, HEC-Tween 80, necropsied 6 months): 1/3 | Dogs cured/Treated [4, 18]: 1/4 | Percent reduction Macrofilariae [4, 18]: 76% | Percent reduction Microfilariae [4, 18]: 78% | cure of B. pahangi infections ([4]; administered orally): also curative when administered orally | antifilarial activity in jirds [5]: outstanding antifilarial activity | local muscle irritation [6]: no local muscle irritation

Compound: COC(=O)Nc1nc2cc(C(N)c3ccccc3)ccc2[nH]1 (racemic) [Example 3, Methyl (±)-[5-[Amino (Phenyl)Methyl]-1H-Benzimidazol-2-yl]Carbamate]
% Microfilarial reduction, A. viteae, Day 4 ([1]; 100 mg/kg/day × 5 days, oral): 83% | % Microfilarial reduction, A. viteae, Day 56 ([1]; 100 mg/kg/day × 5 days, oral): 83% | % Macrofilarial reduction, A. viteae ([1]; 100 mg/kg/day × 5 days, oral): 80% | % Macrofilarial reduction, B. pahangi ([2]; 1.56 mg/kg/day × 5 days, SC): 23% | % Macrofilarial reduction, B. pahangi ([2]; 6.25 mg/kg/day × 5 days, SC): 0% | % Macrofilarial reduction, B. pahangi ([2]; 25 mg/kg/day × 5 days, SC): 75% | % Macrofilarial reduction, B. pahangi ([2]; 100 mg/kg/day × 5 days, SC): 100% | % Macrofilarial reduction, B. pahangi ([2]; 100 mg/kg/day × 5 days, oral): 52%

Compound: COC(=O)Nc1nc2cc(C(N)c3ccccc3)ccc2[nH]1.Cl.Cl (racemic) [Example 4, Methyl (±)-[5-[Amino (Phenyl)Methyl]-1H-Benzimidazol-2-yl]Carbamate Dihydrochloride Salt]
% Microfilarial reduction, A. viteae, Day 4 ([1]; 3.13 mg/kg/day × 5 days, SC): 75% | % Microfilarial reduction, A. viteae, Day 56 ([1]; 3.13 mg/kg/day × 5 days, SC): 50% | % Macrofilarial reduction, A. viteae ([1]; 3.13 mg/kg/day × 5 days, SC): 9% | % Microfilarial reduction, A. viteae, Day 4 ([1]; 6.25 mg/kg/day × 5 days, SC): 67% | % Microfilarial reduction, A. viteae, Day 56 ([1]; 6.25 mg/kg/day × 5 days, SC): 67% | % Macrofilarial reduction, A. viteae ([1]; 6.25 mg/kg/day × 5 days, SC): 27% | % Microfilarial reduction, A. viteae, Day 4 ([1]; 12.5 mg/kg/day × 5 days, SC): 88% | % Microfilarial reduction, A. viteae, Day 56 ([1]; 12.5 mg/kg/day × 5 days, SC): 50% | % Macrofilarial reduction, A. viteae ([1]; 12.5 mg/kg/day × 5 days, SC): 31% | % Microfilarial reduction, A. viteae, Day 4 ([1]; 100 mg/kg/day × 5 days, oral): 91% | % Microfilarial reduction, A. viteae, Day 56 ([1]; 100 mg/kg/day × 5 days, oral): 91% | % Macrofilarial reduction, A. viteae ([1]; 100 mg/kg/day × 5 days, oral): 81% | % Microfilarial reduction, A. viteae, Day 4 ([1]; 200 mg/kg/day × 5 days, oral): 67% | % Microfilarial reduction, A. viteae, Day 56 ([1]; 200 mg/kg/day × 5 days, oral): 100% | % Macrofilarial reduction, A. viteae ([1]; 200 mg/kg/day × 5 days, oral): 100% | % Macrofilarial reduction, B. pahangi ([2]; 3.13 mg/kg/day × 5 days, SC): 15% | % Macrofilarial reduction, B. pahangi ([2]; 6.25 mg/kg/day × 5 days, SC): 14% | % Macrofilarial reduction, B. pahangi ([2]; 12.5 mg/kg/day × 5 days, SC): 18% | % Macrofilarial reduction, B. pahangi ([2]; 100 mg/kg/day × 5 days, oral): 30% | % Macrofilarial reduction, B. pahangi ([2]; 200 mg/kg/day × 5 days, oral): 100%

Compound: CCN(CC)C(=O)N1CCN(C)CC1 [Diethylcarbamazine]
activity against adult worms (macrofilaricidal) [7]: kill adults of lymphatic filariae in some, but far from all patients | activity against microfilariae [8]: has the ability to destroy microfilariae

solubility [3]: 45 µg/mL (≈ 144 µM)
Compound: COC(=O)Nc1nc2cc(C(=O)c3ccc(F)cc3)ccc2[nH]1 [Flubendazole, methyl [5-(4-fluorobenzoyl)-1H-benzimidazol-2-yl]carbamate]
pain and inflammation on injection [9]: cause pain and inflammation on injection | absorption [10]: poorly absorbed

Compound: Cc1ccc(C(=O)Nc2ccc(S(=O)(=O)O)c3cc(S(=O)(=O)O)cc(S(=O)(=O)O)c23)cc1NC(=O)c1cccc(NC(=O)Nc2cccc(C(=O)Nc3cc(C(=O)Nc4ccc(S(=O)(=O)O)c5cc(S(=O)(=O)O)cc(S(=O)(=O)O)c45)ccc3C)c2)c1 [Suramin]
activity against adult worms (macrofilaricidal) [7]: macrofilaricidal action

Compound: CC[C@H](C)[C@H]1O[C@]2(CC[C@@H]1C)C[C@@H]1C[C@@H](C/C=C(\C)[C@@H](O[C@H]3C[C@H](OC)[C@@H](O[C@H]4C[C@H](OC)[C@@H](O)[C@H](C)O4)[C@H](C)O3)[C@@H](C)/C=C/C=C3\CO[C@@H]4[C@H](O)C(C)=C[C@@H](C(=O)O1)[C@]34O)O2 [ivermectin]
activity against adult worms (macrofilaricidal) [7]: without effect on adult worms | activity against microfilariae [8]: outstanding activity against microfilariae

Compound: COC(=O)Nc1nc2ccc(C(=O)c3ccccc3)cc2[nH]1 [mebendazole]
pain and inflammation on injection [9]: cause pain and inflammation on injection | absorption [10]: poorly absorbed

Source: patent publication US5278181A, “Soluble alkyl[5-[amino (phenyl)methyl]-1H-benzimidazol-2-yl] carbamate anthelmintics” (priority 1992, dated 1994)
